In US20070093520A1, “Method of treatment of diarrhea-predominant irritable bowel syndrome in a subject” (priority 2005, published 2007):

System: diarrhea-predominant IBS subjects
Test: 3007 Study: open-label 52-week safety study, adverse events and withdrawals
Conditions: P/C group

With `Cc1nccn1C[C@H]1CCc2c(c3cccc4c3n2CCC4)C1=O` [cilansetron, (R)-(−)-4,5,6,8,9,10-hexahydro-10-[(2-methyl-1H-imidazol-1-yl)methyl]-11H-pyrido-[3,2,1-jk]-carbazol-11-one] the “TEAE: Anaemias NEC” value was 1 (<1%) n (%), the “TEAE: Angina Pectoris” value was 0 n (%) and the “TEAE: Anorexia” value was 1 (<1%) n (%). The “TEAE: Anxiety” value was 5 (2%) n (%), the “TEAE: Anxiety Aggravated” value was 1 (<1%) n (%) and the “TEAE: Anxiety Symptoms” value was 7 (3%) n (%). For the same compound, the “TEAE: Apocrine and Eccrine Gland Disorders” value was 3 (1%) n (%), the “TEAE: Appetite Disorders” value was 1 (<1%) n (%) and the “TEAE: Arrhythmia NOS” value was 0 n (%). The “TEAE: Asthenic Conditions” value was 7 (3%) n (%), the “TEAE: Asthma Aggravated” value was 0 n (%) and the “TEAE: Asthma NOS” value was 1 (<1%) n (%). The “TEAE: Atopic Disorders” value was 1 (<1%) n (%), the “TEAE: Atrial Fibrillation” value was 0 n (%) and the “TEAE: Atrioventricular Block First Degree” value was 0 n (%). For the same compound, the “TEAE: Basal Cell Carcinoma” value was 4 (1%) n (%), the “TEAE: Behaviour and Socialisation Disturbances” value was 1 (<1%) n (%) and the “TEAE: Benign Ovarian Tumour*” value was 1 (<1%) n (%). For the same compound, the “TEAE: Biliary Tract Disorder NOS” value was 1 (<1%) n (%), the “TEAE: Binocular Eye Movement Disorder NOS” value was 1 (<1%) n (%) and the “TEAE: Bladder Disorders NEC” value was 1 (<1%) n (%). The “TEAE: Bladder Infections and Inflammations” value was 1 (<1%) n (%), the “TEAE: Bladder Prolapse” value was 1 (<1%) n (%) and the “TEAE: Bladder and Urethral Symptoms” value was 1 (<1%) n (%). The “TEAE: Blood and Lymphatic System Disorders” value was 2 (<1%) n (%), the “TEAE: Bone Neoplasm Malignant” value was 0 n (%) and the “TEAE: Bone Neoplasms Malignant (Excl Sarcomas)” value was 0 n (%). The “TEAE: Bradyarrhythmia” value was 1 (<1%) n (%), the “TEAE: Breast Calcifications*” value was 1 (<1%) n (%) and the “TEAE: Breast Cancer NOS*” value was 2 (1%) n (%). The “TEAE: Breast Disorder NOS*” value was 1 (<1%) n (%), the “TEAE: Breast Disorders NEC*” value was 4 (2%) n (%) and the “TEAE: Breast Mass NOS*” value was 2 (1%) n (%). For the same compound, the “TEAE: Breast and Nipple Neoplasms Malignant*” value was 2 (1%) n (%), the “TEAE: Breath Sounds Decreased” value was 0 n (%) and the “TEAE: Breathing Abnormalities” value was 1 (<1%) n (%). The “TEAE: Bronchospasm and Obstruction” value was 1 (<1%) n (%), the “TEAE: Bruising, Ecchymosis and Purpura” value was 0 n (%) and the “TEAE: Bundle Branch Block Right” value was 0 n (%). For the same compound, the “TEAE: Calculus Renal NOS” value was 0 n (%), the “TEAE: Calculus Ureteric” value was 0 n (%) and the “TEAE: Cardiac Conduction Disorders” value was 0 n (%). For the same compound, the “TEAE: Cardiac Disorders” value was 6 (2%) n (%), the “TEAE: Cardiac Fibrillation NOS” value was 1 (<1%) n (%) and the “TEAE: Cardiac Flutter” value was 1 (<1%) n (%). The “TEAE: Cardiac Signs and Symptoms NEC” value was 2 (<1%) n (%), the “TEAE: Cataract Unilateral” value was 0 n (%) and the “TEAE: Cataracts (Excl Congenital)” value was 1 (<1%) n (%). The “TEAE: Cerumen Impaction” value was 0 n (%), the “TEAE: Chest Discomfort” value was 1 (<1%) n (%) and the “TEAE: Chest Pain” value was 4 (1%) n (%). The “TEAE: Chest Tightness” value was 0 n (%), the “TEAE: Cholecystitis and Cholelithiasis” value was 0 n (%) and the “TEAE: Cholelithiasis” value was 0 n (%). For the same compound, the “TEAE: Congenital, Familial and Genetic Disorders” value was 1 (<1%) n (%), the “TEAE: Conjunctival Infections, Irritations and Inflammations” value was 0 n (%) and the “TEAE: Conjunctivitis” value was 0 n (%). The “TEAE: Conjunctivitis Allergic” value was 0 n (%), the “TEAE: Contusion” value was 2 (<1%) n (%) and the “TEAE: Cough” value was 6 (2%) n (%). For the same compound, the “TEAE: Coughing and Associated Symptoms” value was 6 (2%) n (%), the “TEAE: Cyst NOS” value was 0 n (%) and the “TEAE: Cystitis Interstitial” value was 1 (<1%) n (%). The “TEAE: Dacryostenosis Acquired” value was 0 n (%), the “TEAE: Deafness NOS” value was 0 n (%) and the “TEAE: Dehydration” value was 1 (<1%) n (%). For the same compound, the “TEAE: Depression” value was 5 (2%) n (%), the “TEAE: Depression Aggravated” value was 1 (<1%) n (%) and the “TEAE: Depressive Disorders” value was 6 (2%) n (%). For the same compound, the “TEAE: Dermal and Epidermal Conditions NEC” value was 4 (1%) n (%), the “TEAE: Dermatitis Allergic” value was 1 (<1%) n (%) and the “TEAE: Dermatitis Ascribed to Specific Agent” value was 1 (<1%) n (%). For the same compound, the “TEAE: Dermatitis Contact” value was 1 (<1%) n (%), the “TEAE: Dermatitis Medicamentosa” value was 1 (<1%) n (%) and the “TEAE: Dermatitis NOS” value was 1 (<1%) n (%). The “TEAE: Dermatitis and Eczema” value was 4 (1%) n (%), the “TEAE: Dermographism” value was 1 (<1%) n (%) and the “TEAE: Diabetes Mellitus (Incl Subtypes)” value was 1 (<1%) n (%). For the same compound, the “TEAE: Diabetes Mellitus Aggravated” value was 1 (<1%) n (%), the “TEAE: Diabetes Mellitus Non-Insulin-Dependent” value was 0 n (%) and the “TEAE: Disturbances in Initiating and Maintaining Sleep” value was 0 n (%). For the same compound, the “TEAE: Drug Hypersensitivity” value was 0 n (%), the “TEAE: Dry Eye NOS” value was 0 n (%) and the “TEAE: Dysfunctional Uterine Bleeding*” value was 0 n (%). The “TEAE: Dyshidrosis” value was 1 (<1%) n (%).
